{"source": "patent US10863753B2", "about": "“Iron-fortified tea preparations and methods of making same” (The Governing Council of the University of Toronto, priority 2015, dated 2020)", "key": {"[1]": {"experiment": "Complexation of iron in gallic acid solution (spectrophotometry)", "conditions": "for Reduction of iron polyphenol complex formation: gallic acid; for Iron gallic acid complex: 0.3 mM iron", "experimental": "To approximate brewed tea, a concentration of 1 g/L and pH 5 were used. Binding of iron was also tested at pH 7 to approximate the pH of the small intestine. Hydrochloric acid and sodium hydroxide were used to adjust and maintain the pH. […] Since the iron-gallate complex is coloured, spectrophotometry was used to quantify the complex formation."}, "[2]": {"assay_type": "physicochemical", "conditions": "for Precipitation in tea extract / Reduction of iron-polyphenol complex formation: tea extract 1 gGAE/L", "method": "The tea extract was prepared using a solution of 50% by volume N,N-dimethylformamide (DMF) and 50% by volume reverse osmosis purified (RO) water with black tea leaves. […] Tea extract was diluted to the concentration of tea (1 gGAE/L) or to 1/10th of that concentration (0.1 gGAE/L) for use in these experiments and pH was controlled using hydrochloric acid and sodium hydroxide.\nIron complex formation was measured using spectrophotometry and analyzed by normalizing against ferrous sulfate in gallic acid (GA) at the phenolic concentration of tea. Therefore, 100% represents the peak absorbance of ferrous sulfate in a 1 g/L gallic acid solution at pH 5 or pH 7."}, "[3]": {"experiment": "Iron-polyphenol complex formation in brewed tea (spectrophotometry / colour)", "assay_type": "physicochemical", "method": "Iron polyphenol complex was measured using spectrophotometry. 2 L of tea were freshly prepared and brewed for 5 minutes. Tea leaves were removed and the liquid was distributed into 6 beakers (250 ml each). A stock solution of ferric EDTA was prepared and increasing volumes were added to each beaker. The maximum UV and Visible light absorbance wavelength for the tea was determined Absorbance at this maximum absorbance wavelength was measured after 5, 20 and 60 minutes. […]\nComplex formation was determined using spectrophotometry. […] The maximum UV and visible light wavelength absorbance for the iron-tea polyphenol complex was determined. The maximum absorbance was 580 nm at tea pH and fortified teas were measured after 5, 20 and 60 minutes."}, "Caco-2 cells": {"tested_on": "Caco-2 cells", "experiment": "Caco-2 cell transport, bioavailable fraction in basolateral chamber (Example 3)", "method": "The digested liquid was diluted to half with buffer in order to ensure cells survival during the experiment, and the basolateral camera was filled with 2 ml of buffer. […] The liquid from the basolateral camera was collected and sent for iron analysis using AAS."}, "[4]": {"experiment": "In vitro bioaccessibility, simulated pepsin and pancreatin/bile digestion (Example 3)", "assay_type": "in vitro ADME", "conditions": "in tea, no EDTA protection"}, "[5]": {"conditions": "target pH 5, tea extract 0.1 gGAE/L, 0.3 mM iron"}, "[6]": {"conditions": "target pH 7, tea extract 0.1 gGAE/L, 0.3 mM iron"}, "[7]": {"conditions": "iron source added to tea without EDTA protection"}, "[8]": {"conditions": "iron source with EDTA protection, molar ratio 1:2"}}, "note": "Where “and” joins values, the source holds several entries; their conditions need not be identical. Equal values may be shown once. Read-outs that look alike come from different tables or passages of the source.", "data": [{"smiles": "O=C([O-])CN(CCN(CC(=O)[O-])CC(=O)[O-])CC(=O)[O-].[Fe+3].[Na+]", "note": "[FeNaEDTA, ferric sodium EDTA]", "values": [{"measurement": "Reduction of iron polyphenol complex formation", "setting": "[1]; pH 5", "result": "94%±3%"}, {"measurement": "Reduction of iron polyphenol complex formation", "setting": "[1]; pH 7", "result": "93%±2%"}, {"measurement": "Iron gallic acid complex", "setting": "[1]; target pH 5, 1 g/L gallic acid", "result": "6.2 ± 0.2", "unit": "%"}, {"measurement": "Iron gallic acid complex", "setting": "[1]; target pH 7, 1 g/L gallic acid", "result": "7.0 ± 0.5", "unit": "%"}, {"measurement": "Iron Complex (% FS in 1 g/L GA)", "setting": "[2]; [5]", "result": "3.0 ± 0.2", "unit": "% FS in 1 g/L GA"}, {"measurement": "Iron Complex (% FS in 1 g/L GA)", "setting": "[2]; target pH 5, tea extract 0.1 gGAE/L, 0.3 mM iron, listed as Ferric sodium EDTA", "result": 3, "unit": "% FS in 1 g/L GA"}, {"measurement": "Iron Complex (% FS in 1 g/L GA)", "setting": "[2]; target pH 5, tea extract 1 gGAE/L, 0.3 mM iron", "result": "4 ± 6", "unit": "% FS in 1 g/L GA"}, {"measurement": "Iron Complex (% FS in 1 g/L GA)", "setting": "[2]; [6]", "result": "3.0 ± 0.7", "unit": "% FS in 1 g/L GA"}, {"measurement": "Iron Complex (% FS in 1 g/L GA)", "setting": "[2]; target pH 7, tea extract 0.1 gGAE/L, 0.3 mM iron, listed as Ferric sodium EDTA", "result": 3, "unit": "% FS in 1 g/L GA"}, {"measurement": "Iron Complex (% FS in 1 g/L GA)", "setting": "[2]; target pH 7, tea extract 1 gGAE/L, 0.3 mM iron", "result": "70 ± 8", "unit": "% FS in 1 g/L GA"}, {"measurement": "Precipitation in tea extract", "setting": "[2]", "result": "not cause precipitation"}, {"measurement": "Reduction of iron-polyphenol complex formation", "setting": "[2]; pH 5", "result": 96, "unit": "%"}, {"measurement": "Reduction of iron-polyphenol complex formation", "setting": "[2]; pH 7", "result": 30, "unit": "%"}, {"measurement": "Iron-polyphenol complex formation (colour)", "setting": "[3]; [7]", "result": "complex was formed"}, {"measurement": "Iron-polyphenol complex formation (colour)", "setting": "[3]; [8]", "result": "effective in avoiding complex formation"}]}, {"smiles": "O=C([O-])/C=C/C(=O)[O-].[Fe+2]", "note": "[ferrous fumarate]", "values": [{"measurement": "Iron gallic acid complex", "setting": "[1]; target pH 5, 1 g/L gallic acid", "result": "103 ± 3.0", "unit": "%"}, {"measurement": "Iron gallic acid complex", "setting": "[1]; target pH 7, 1 g/L gallic acid", "result": "110 ± 2.0", "unit": "%"}, {"measurement": "Iron Complex (% FS in 1 g/L GA)", "setting": "[2]; [5]", "result": "65 ± 2", "unit": "% FS in 1 g/L GA"}, {"measurement": "Iron Complex (% FS in 1 g/L GA)", "setting": "[2]; [6]", "result": "66 ± 3", "unit": "% FS in 1 g/L GA"}, {"measurement": "Precipitation in tea extract", "setting": "[2]", "result": "precipitation occurs"}, {"measurement": "Iron-polyphenol complex formation (colour)", "setting": "[3]; [7]", "result": "iron-polyphenol complex was formed instantaneously"}, {"measurement": "Iron-polyphenol complex formation (colour)", "setting": "[3]; [8]", "result": "effective in avoiding complex formation"}, {"measurement": "Increased bioavailability with an excess of EDTA versus no protection", "setting": "Caco-2 cells; in fortified tea", "result": 4, "unit": "fold"}, {"measurement": "Bioavailability of iron", "setting": "Caco-2 cells; in tea, added without EDTA protection", "result": "16% and 12%"}]}, {"smiles": "O=S(=O)([O-])[O-].[Fe+2]", "note": "[ferrous sulphate]", "values": [{"measurement": "Iron gallic acid complex", "setting": "[1]; target pH 5, 1 g/L gallic acid", "result": "100 ± 3.0", "unit": "%"}, {"measurement": "Iron gallic acid complex", "setting": "[1]; target pH 7, 1 g/L gallic acid", "result": "100 ± 2.0", "unit": "%"}, {"measurement": "Iron Complex (% FS in 1 g/L GA)", "setting": "[2]; pH 5", "result": "72 ± 2", "unit": "% FS in 1 g/L GA"}, {"measurement": "Iron Complex (% FS in 1 g/L GA)", "setting": "[2]; pH 7", "result": "85 ± 1", "unit": "% FS in 1 g/L GA"}, {"measurement": "Iron-polyphenol complex formation (colour)", "setting": "[3]; [7]", "result": "iron-polyphenol complex was formed instantaneously"}, {"measurement": "Iron-polyphenol complex formation (colour)", "setting": "[3]; [8]", "result": "effective in avoiding complex formation"}, {"measurement": "Bioaccessibility of iron", "setting": "[4]", "result": "lowest bioaccessibility"}]}]}
